The values that follow come from ChEMBL document CHEMBL4619793, “Pyrazolo[4,3-d]pyrimidine Derivatives as a Novel Hypoxia-Inducible Factor Prolyl Hydroxylase Domain Inhibitor for the Treatment of Anemia” (ACS Med Chem Lett, 2020).

Series [1] is described as follows: Solubility of the compound in buffer at pH 6.5. Type of series: physicochemical.
The target in series [2] is Egl nine homolog 1 (Rattus norvegicus) (UniProt P59722). Description: In vivo inhibition of HIF-PHD2 in Sprague-Dawley rat assessed as increase in serum erythropoietin level at 10 mg/kg, po administered as single dose measured after 8 hrs by immunoassay. Type of series: functional, organism-based.
Egl nine homolog 1 (Rattus norvegicus), sequence (P59722 whole entry): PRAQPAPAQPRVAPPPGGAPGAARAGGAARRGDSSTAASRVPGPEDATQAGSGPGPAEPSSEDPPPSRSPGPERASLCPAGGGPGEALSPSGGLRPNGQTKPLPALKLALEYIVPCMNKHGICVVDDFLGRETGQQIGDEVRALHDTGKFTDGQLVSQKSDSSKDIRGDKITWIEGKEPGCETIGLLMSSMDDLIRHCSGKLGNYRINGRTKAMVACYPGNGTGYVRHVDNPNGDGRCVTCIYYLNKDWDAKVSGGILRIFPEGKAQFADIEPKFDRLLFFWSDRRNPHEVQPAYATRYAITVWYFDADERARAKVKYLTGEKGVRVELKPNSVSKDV
Series [3] in a line: Cmax in Sprague-Dawley rat at 1 mg/kg, po. Type of series: ADME, organism-based. The arrangement: dose 1 mg/kg, route oral. Conditions: in vivo.
The nature of series [4]: AUC (0 to infinity) in Sprague-Dawley rat at 1 mg/kg, po. The format is ADME, organism-based. The arrangement: dose 1 mg/kg, time infinity, route oral. To be noted: in vivo.
The nature of series [5]: Oral bioavailability in Sprague-Dawley rat at 1 mg/kg. Type of series: ADME, organism-based. Conditions: in vivo.
Series [6] can be described thus: Cmax in Sprague-Dawley rat at 1 mg/kg, iv. Type of series: ADME, organism-based. The arrangement: dose 1 mg/kg, route intravenous. Conditions: in vivo.
The nature of series [7]: AUC (0 to infinity) in Sprague-Dawley rat at 1 mg/kg, iv. Type of series: ADME, organism-based. More on the design: dose 1 mg/kg, time infinity, route intravenous. Conditions: in vivo.
A short description of series [8]: Total clearance in Sprague-Dawley rat at 1 mg/kg, iv. The format is ADME, organism-based. To be noted: in vivo.
A short description of series [9]: Volume of distribution at steady state in Sprague-Dawley rat at 1 mg/kg, iv. Type of series: ADME, organism-based. Conditions: in vivo, read-out: Vdss.
For series [10], the system named is Rattus norvegicus. Description: Antianemic activity in kidney excised-induced renal anemia Sprague-Dawley rat model assessed as improvement in blood hemoglobin level at 1 mg/kg, po administered once daily for 4 weeks measured 2 week post initial dose. The format is functional, organism-based.
Series [11] has as its system Rattus norvegicus. Briefly: Antianemic activity in kidney excised-induced renal anemia Sprague-Dawley rat model assessed as improvement in blood hemoglobin level at 2 mg/kg, po administered once daily for 4 weeks measured 1 week post initial dose. The format is functional, organism-based.
Series [12] deals with Mus musculus. Description: In vivo inhibition of HIF-PHD2 in ICR mouse assessed as serum erythropoietin level at 10 mg/kg, po administered as single dose measured after 6 hrs by immunoassay (reference value: 125 pg/ml). The format is functional.
Series [13] relates to Mus musculus. Briefly: In vivo inhibition of HIF-PHD2 in ICR mouse assessed as serum erythropoietin level at 30 mg/kg, po administered as single dose measured after 6 hrs by immunoassay (reference value: 125 pg/ml). The format is functional.
The nature of series [14]: Cmax in Sprague-Dawley rat at 10 mg/kg, po. More on the design: dose 10 mg/kg, route oral. To be noted: in vivo. The format is ADME, organism-based.
Series [15] is described as follows: AUC (0 to infinity) in Sprague-Dawley rat at 10 mg/kg, po. Conditions: in vivo. The format is ADME, organism-based. More on the design: dose 10 mg/kg, time infinity, route oral.
Series [16] in a line: Oral bioavailability in Sprague-Dawley rat at 10 mg/kg. To be noted: in vivo. The format is ADME, organism-based.
Series [17] can be described thus: Cmax in Sprague-Dawley rat at 0.5 mg/kg, iv. The format is ADME, organism-based. To be noted: in vivo. The arrangement: dose 0.5 mg/kg, route intravenous.
A short description of series [18]: AUC (0 to infinity) in Sprague-Dawley rat at 0.5 mg/kg, iv. More on the design: dose 0.5 mg/kg, route intravenous, time infinity. To be noted: in vivo. The format is ADME, organism-based.
A short description of series [19]: Total clearance in Sprague-Dawley rat at 0.5 mg/kg, iv. Type of series: ADME, organism-based. To be noted: in vivo.
The nature of series [20]: Volume of distribution at steady state in Sprague-Dawley rat at 0.5 mg/kg, iv. Type of series: ADME, organism-based. Conditions: in vivo, read-out: Vdss.
Series [21] has as its system Mus musculus. Description: In vivo inhibition of HIF-PHD2 in ICR mouse assessed as serum erythropoietin level at 100 mg/kg, po administered as single dose measured after 6 hrs by immunoassay (reference value: 146 pg/ml). The format is functional.

SMILES strings stand for the structures. Values after ≈ are worked out from the molar mass of the structure shown. Active and inactive are the calls of the source. The calls are words filed in the database; no cut-off is given here. Where only a bound is given, the exact number is not on record here.

Broadly, the solubility is the dissolved amount per volume that the medium holds. What is called Cmax is the maximum level reached in the sampled fluid or tissue. The term AUC(0-inf) denotes total exposure, with the tail of the curve extrapolated. A higher AUC(0-inf) goes with high exposure. The bioavailability is the share of a dose that reaches the circulation, judged against a reference dose that is usually intravenous. High values mean much systemic uptake, low ones little systemic uptake. By clearance is commonly meant a measure of how efficiently the substance is removed, as volume per time. A lower clearance goes with inefficient removal. Take `C[C@@H](c1cc(Cl)ccc1Cl)n1ncc2nc(-n3cc(C(=O)O)cn3)[nH]c(=O)c21`: the solubility in series [1] was > 1000 µg/mL. For the same compound, the inhibition result in series [2] is “Active”. Moreover, the results for the Cmax in series [3] and in [6] were 1840 ng/mL and 12400 ng/mL, respectively. Moreover, the AUC(0-inf) in series [4] stood at 23500 ng·h/mL; in series [7], 30400 ng·h/mL. This compound also had a bioavailability in series [5] of 77%. This compound gave a clearance in series [8] of 0.567 mL/min/kg. In series [9], the Vd worked out at 0.249 L/kg. For the same compound, the outcome with Rattus norvegicus [10] and in the series with Rattus norvegicus [11] was Active.

Regarding `O=C(O)c1cnn(-c2nc3cnn(Cc4ccc(-c5ccccc5)cc4)c3c(=O)[nH]2)c1`, the Activity with Mus musculus [12] is 63000 pg/mL; in the series with Mus musculus [13] it was 89000 pg/mL. Also, in [1], the solubility is 9.5 µg/mL (≈ 23 µM). Besides, the Cmax in series [14] is 2710 ng/mL; in series [17] it was 4910 ng/mL. The AUC(0-inf) in series [15] came to 17800 ng·h/mL; in series [18], 5560 ng·h/mL. This compound also came in with a bioavailability in series [16] of 16%. Further, the clearance in [19] is 1.52 mL/min/kg. For the same compound, the Vd in [20] is 0.197 L/kg.

Turning to `O=C(O)c1cnn(-c2nc3cn(Cc4ccc(-c5ccccc5)cc4)nc3c(=O)[nH]2)c1`, the Activity with Mus musculus [21] was found to be 450 pg/mL.

In turn, `C[C@@H](c1ccc(Cl)c(Cl)c1)n1ncc2nc(-n3cc(C(=O)O)cn3)[nH]c(=O)c21` registered a solubility in series [1] of 75 µg/mL (≈ 179 µM).

Regarding `O=C(O)c1cnn(-c2nc3cnn(Cc4ccc(-c5ccc(F)cc5)c(F)c4)c3c(=O)[nH]2)c1`, in [1], the concentration in solution (solubility) was 49 µg/mL (≈ 109 µM).

Take `O=C(O)c1cnn(-c2nc3cnn(Cc4ccc(Cl)c(Cl)c4)c3c(=O)[nH]2)c1`: the concentration in solution in series [1] (solubility) came to 88 µg/mL (≈ 217 µM).
